Results as given in patent US20220289731A1, “MELANOCORTIN-4 RECEPTOR AGONISTS” (LG CHEM, LTD., priority 2019, published 2022).

How the values were obtained:
Assay in all cases: CYP inhibition, recombinant enzyme, fluorescence
Type in all cases: in vitro ADME
CYP1A2 = biological target: T1, CYP1A2 (Homo sapiens, UniProt P05177); details: recombinant CYP1A2, pH 7.4, 10 μM compound, 30 min pre-incubation, read-out: CYP inhibition (%) at 10 μM, 1A2
T1 sequence (P05177 1-516): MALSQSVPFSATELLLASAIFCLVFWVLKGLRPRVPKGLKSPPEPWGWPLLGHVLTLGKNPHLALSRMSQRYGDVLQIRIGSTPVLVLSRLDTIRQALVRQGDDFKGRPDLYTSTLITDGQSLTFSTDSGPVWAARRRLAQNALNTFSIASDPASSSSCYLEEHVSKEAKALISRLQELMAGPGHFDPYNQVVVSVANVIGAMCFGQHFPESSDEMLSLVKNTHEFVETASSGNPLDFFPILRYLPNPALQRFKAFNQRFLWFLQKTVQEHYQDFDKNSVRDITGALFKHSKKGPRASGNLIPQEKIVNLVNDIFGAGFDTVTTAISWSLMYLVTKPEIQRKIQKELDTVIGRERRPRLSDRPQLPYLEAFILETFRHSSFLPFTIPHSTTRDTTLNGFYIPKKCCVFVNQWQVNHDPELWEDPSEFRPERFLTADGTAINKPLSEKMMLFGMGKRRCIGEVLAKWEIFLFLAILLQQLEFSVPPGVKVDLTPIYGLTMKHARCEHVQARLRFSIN
Procedure: (§1) The following Table 8 was referred for the use of a probe substrate, positive control, and isozyme and measurement conditions with respect to the measurement of the inhibitory ability of each substance. [table] […] The buffer spiked with experimental compound was mixed with the same volume of CYP isozyme prep solution so that the final concentration was 10 μM, followed by pre-warming for 10 minutes in a 37° C. fluorescence plate-reader. Each well NRS solution (NADPH Regeneration System: 0.22 mM β-NADP, 2.8 mM glucose-6-phosphate, and 0.6 units/mL of glucose-6-phosphate dehydrogenase) was added, followed by pre-incubation for 30 minutes. Thereafter, the reaction was initiated by adding the substrate to the well subjected to pre-incubation and monitored at intervals of one minute at the measurement wavelength for each substrate for 30 minutes. The measured values obtained from the positive control and the compound of Example 1 were compared with the fluorescence intensity of a negative control (no inhibition or compound) to confirm the inhibitory ability of each compound against isozyme. Inhibitory activity (%) was expressed based on the following criteria: […]

CYP2D6 = CYP2D6 (Homo sapiens, UniProt P10635); details: recombinant CYP2D6, pH 7.4, 10 μM compound, 30 min pre-incubation, read-out: CYP inhibition (%) at 10 μM, 2D6
Procedure: as §1

CYP2C9 = CYP2C9 (Homo sapiens, UniProt P11712); details: 10 μM compound; for inhibition at 30 min, 10 µM: human, recombinant CYP2C9, pH 7.4, 30 min pre-incubation, read-out: CYP inhibition (%) at 10 μM, 2C9
Procedure: as §1

CYP2C19 = CYP2C19 (Homo sapiens, UniProt P33261); details: recombinant CYP2C19, pH 7.4, 10 μM compound, 30 min pre-incubation, read-out: CYP inhibition (%) at 10 μM, 2C19
Procedure: as §1

Sequence of CYP2C9 (P11712 whole entry): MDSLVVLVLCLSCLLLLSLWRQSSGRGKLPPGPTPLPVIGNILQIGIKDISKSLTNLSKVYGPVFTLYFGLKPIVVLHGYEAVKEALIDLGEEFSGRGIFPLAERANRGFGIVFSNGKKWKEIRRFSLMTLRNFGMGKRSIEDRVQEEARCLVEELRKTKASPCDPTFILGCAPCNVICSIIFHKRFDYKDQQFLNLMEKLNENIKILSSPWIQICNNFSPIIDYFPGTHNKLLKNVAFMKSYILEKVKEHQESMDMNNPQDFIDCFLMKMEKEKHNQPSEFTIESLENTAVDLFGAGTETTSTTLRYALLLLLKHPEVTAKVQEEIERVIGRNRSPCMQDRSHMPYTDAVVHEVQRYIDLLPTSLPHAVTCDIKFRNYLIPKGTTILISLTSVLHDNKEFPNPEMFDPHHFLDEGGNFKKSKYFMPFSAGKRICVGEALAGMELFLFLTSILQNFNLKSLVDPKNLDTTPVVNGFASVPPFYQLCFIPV
Sequence of CYP2C19 (P33261 whole entry): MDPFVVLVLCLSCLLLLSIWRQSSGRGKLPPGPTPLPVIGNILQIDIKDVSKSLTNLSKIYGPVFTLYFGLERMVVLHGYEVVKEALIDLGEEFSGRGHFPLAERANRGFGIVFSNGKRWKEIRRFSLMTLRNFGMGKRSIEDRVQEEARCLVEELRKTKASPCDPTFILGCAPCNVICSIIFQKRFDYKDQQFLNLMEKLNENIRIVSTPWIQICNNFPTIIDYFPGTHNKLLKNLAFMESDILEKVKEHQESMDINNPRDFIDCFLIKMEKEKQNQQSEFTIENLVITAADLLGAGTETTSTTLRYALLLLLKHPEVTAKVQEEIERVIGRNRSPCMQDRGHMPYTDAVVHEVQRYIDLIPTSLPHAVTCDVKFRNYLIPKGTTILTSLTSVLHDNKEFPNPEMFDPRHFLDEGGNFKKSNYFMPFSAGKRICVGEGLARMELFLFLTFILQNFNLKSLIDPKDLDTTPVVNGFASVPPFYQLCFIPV
Sequence of CYP2D6 (P10635 whole entry): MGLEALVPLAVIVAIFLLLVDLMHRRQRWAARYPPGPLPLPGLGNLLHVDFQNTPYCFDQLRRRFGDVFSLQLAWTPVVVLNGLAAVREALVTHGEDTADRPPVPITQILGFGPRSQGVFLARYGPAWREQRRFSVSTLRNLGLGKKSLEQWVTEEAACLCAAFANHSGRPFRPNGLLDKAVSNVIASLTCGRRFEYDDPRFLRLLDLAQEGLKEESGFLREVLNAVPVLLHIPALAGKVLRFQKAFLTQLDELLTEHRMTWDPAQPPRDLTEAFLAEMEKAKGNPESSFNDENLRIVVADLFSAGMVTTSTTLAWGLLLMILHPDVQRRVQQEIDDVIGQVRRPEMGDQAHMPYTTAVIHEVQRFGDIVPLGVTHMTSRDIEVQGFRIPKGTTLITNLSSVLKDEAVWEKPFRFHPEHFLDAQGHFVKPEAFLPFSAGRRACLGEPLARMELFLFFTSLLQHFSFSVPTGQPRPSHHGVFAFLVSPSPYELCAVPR

In the case of CC(=O)N(C1CCC(C)(C)CC1)[C@H]1C[C@@H](C(=O)N2CCOCC2)N(C(=O)[C@@H]2CN(C(C)(C)C)C[C@H]2c2ccc(Cl)cc2)C1.Cl [Comparative Example 2 (A96), N-((3S,5S)-1-((3S,4R)-1-(tert-butyl)-4-(4-chlorophenyl)pyrrolidine-3-carbonyl)-5-(morpholine-4-carbonyl)pyrrolidin-3-yl)-N-(4,4-dimethylcyclohexyl)acetamide hydrochloride], the inhibition at 30 min, 10 µM (CYP1A2) is reported as under 50%, the inhibition at 30 min, 10 µM (CYP2D6) is reported as under 50% and the “Inhibitory ability against CYP2C9 (in words)” value (CYP2C9) is reported as “very high inhibitory ability”. It also gave an inhibition at 30 min, 10 µM (CYP2C9) of over 50% and an inhibition at 30 min, 10 µM (CYP2C19) of under 50%.

For CC(C)C(=O)N([C@H]1C[C@@H](C(=O)N2CCOCC2)N(C(=O)[C@@H]2CN(C(C)(C)C)C[C@H]2c2ccc(Cl)cc2)C1)[C@H]1CC[C@@H](C)CC1.Cl [Example 1, N-((3S,5S)-1-((3S,4R)-1-(tert-butyl)-4-(4-chlorophenyl)pyrrolidine-3-carbonyl)-5-(morpholine-4-carbonyl)pyrrolidin-3-yl)-N-((1s,4R)-4-methylcyclohexyl)isobutyramide hydrochloride], the inhibition at 30 min, 10 µM (CYP1A2) was under 50%, the inhibition at 30 min, 10 µM (CYP2D6) was under 50% and the inhibition at 30 min, 10 µM (CYP2C9) was under 50%. For the same molecule, the inhibition at 30 min, 10 µM (CYP2C19) was under 50%.
